Results on 18 compounds are retold here after patent publication US10603319B2, “Pyrimidine derivatives and their use in treating or preventing a respiratory syncytial virus infection” (REVIRAL LIMITED, priority 2016, dated 2020).

One test addresses T1, RSV A2_F (Human respiratory syncytial virus A, UniProt P03420).
T1 construct: expressed in transfected cells; host or cells: HEK 293T/17
Nature of the test: RSV fusion assay (luciferase reporter, HEK 293T/17 cells transfected with A2_F). The format is cell-based. The note with it: 24 hr. How it is done:
HEK 293T/17 cells were cultured in T75 culture flasks in Dulbecco's medium (DMEM) containing 10% FBS and 1× Penicillin-Streptomycin (Pen/Strep) and warmed to 37° C. prior to use. The cells were passaged by first washing briefly with 3 ml phosphate buffered saline (PBS) followed by a 4 min incubation with […] at 37° C. 7 ml media was then added to the flask and the cells dispersed via pipetting (×3) against the bottom of the flask. Two further T75 flasks were each seeded with 2×10^6 cells in 15 ml fresh media.
Cells were seeded on the T75 plates at the same density as on the 6-well plates the area of a T75 flask and one 1.75 cm radius well from a 6-well plate were compared. 7.79×2 ml of 3×10^5 cells ml^−1 was used to seed a single T75 flask.
HEK cells were removed from a T75 flask as described above. The cells were counted and diluted to 3×10^5 cells/ml in fresh media. Two T75 flasks were each seeded with 15.58 ml diluted cells.
The plasmid DNA (for pFR-Luc and pcDNA3.1_Gal4/NFκB) to be transfected into the HEK cells was first prepared in serum free media (DMEM+Pen/Strep) containing the transfection reagent Fugene 6 (Promega). Transfections were set up as follows (Luc=pFR_Luc, Gal4=pcDNA3.1+_Gal4/NFκB, A2_F=pcDNA3.1+_A2_F)
Serum free media was placed in a 1.5 ml eppendorf tube then the fugene 6 was added into the media. The tube was vortexed for 1 s before being incubated at RT for 5 min. The plasmid DNA was then added to the tube, vortexed for 1 s, then incubated at RT for 15 min
The transfection reagents were then added to the appropriate T75 flask by tipping the flask on end and adding the reagents directly to the media already in the flask. The flask was then tipped on its back so the media could be mixed thoroughly whilst not disturbing the cells before placing the flask the right way up and incubating overnight at 37° C. and 5% CO2.
Compounds were diluted (in a polypropylene round-bottomed 96 well plate) 1:3 in a twelve point dilution curve to give top [final] of either 3.3 μM, 1 μM, 500 nM 200 nM or 100 nM. The Control compound was always run at a concentration of 100 nM.
The cells were then counted and diluted to 4×10^5 cells/ml in fresh media. 50 μl of transfection population 1 cells were added to all wells of the assay plates. 100 μl diluted compound (2 rows per compound), standard curve (one row) and controls (100 nM RV (100% inhibition, four wells), DMSO (0% inhibition, eight wells)) were added to the appropriate wells. 50 μl of the diluted (4×10^5 cells/ml) transfection population 2 cells when then added to all wells.
The plates were then incubated for 24 hr at 37° C. and 5% CO2
Buffers were prepared for the luciferase assay (20 mM tricine, 10 mM MgSO4, 1 mM EDTA, 10 mM DTT) and lysis (25 mM tris-phosphate, 8 mM MgCl2, 1 mM DTT, 1% Triton X-100, 15% glycerol) and stored at −20° C.
Luminescence was measured as described:
Media was discarded into Virkon and the plates washed with 100 ul PBS per well. 20 ul/well of lysis buffer was added to each well and incubated shaking for 5 min at RT. Luciferin was added to LAAB at a dilution of 1:50 to give a working luciferin buffer. 100 μl working luciferin buffer was added to each well and luminescence was measured immediately. […]
Background: Reporter assays use an easily measured gene product as a stand-in for the process of interest.

The subject of another test is RSV A2 VR-1540. Nature of the test: Plaque Reduction Assay 2 (HEp-2 cells, virospot count). The note with it: human respiratory syncytial virus, 24 h; RSV A2, HEp-2 cells, 1 day. The format is cell-based. The text has this: Plaque Reduction Assay 2:
This RSV plaque reduction assay is an infectivity assay which allows quantification of the number of infectious units in a distinct foci of RSV infection. This is indicated by zones of viral antigen detected by specific antibody staining within a monolayer of otherwise healthy tissue culture cells. As each plaque originates from a single infectious virus particle an accurate calculation of the anti-viral effect can be obtained by counting plaques in the presence and absence of an anti-viral compound. HEp-2 cells (ATCC, CCL23) were passaged in flasks and seeded in 96-well plates in DMEM containing antibiotics and supplemented with 10% FBS. During inoculation and subsequent incubation, cells were cultured in DMEM containing 3% FBS. 100 plaque forming unit (PFU)/well of RSV (RSV A2 VR-1540) was mixed with ten serial dilutions of compound. Subsequently, 100 μL of the virus/compound mixtures was added to confluent HEp-2 cell monolayers. The cells and virus/compound mixtures were incubated at 35° C. in a humidified 5% CO2 incubator for 1 day.
Cells were washed twice with PBS before adding 50% v/v EtOH/MeOH, and then stored at −20° C. On the day of the staining, fixative was first removed from the plates. Plates were washed 3× with PBS. A pre-titrated amount of the primary antibody was added in 60 μL PBS/2% milk powder, and plates incubated for 1 h at rt. The plates were washed 3× with PBS/0.05% Tween20 before addition of goat anti-mouse horse radish peroxidase in 60 μL PBS/2% milk powder, and incubated for 1 h at rt. Following three wash steps with PBS/0.05% Tween20, 60 μL ready-to-use TrueBlue was added and plates were incubated at rt for 10-15 min before adding MilliQ water. Plates were washed once with water, incubated for 30-60 min and after removal of water, air-dried in the dark.
Plates were scanned and analyzed using the Immunospot S6 UV analyzer, which is equipped with BioSpot analysis software for counting immunostained plaques (virospots). Plaque counts were used to calculate % infection relative to the mean of the spot count (SC) in the virus control wells for RSV. IC50/IC90 values were calculated as 50% or 90% reduction in signal, respectively, by interpolation of inhibition curves fitted with a 4-parameter nonlinear regression with a variable slope in GraphPad 5.0 (Prism).

Setting [1] is: Fusion activity IC50 μM, HEK 293T/17 cells.
The mark [2] stands for this setting: Fusion activity PIC50, HEK 293T/17 cells.

T1 sequence (P03420 137-574): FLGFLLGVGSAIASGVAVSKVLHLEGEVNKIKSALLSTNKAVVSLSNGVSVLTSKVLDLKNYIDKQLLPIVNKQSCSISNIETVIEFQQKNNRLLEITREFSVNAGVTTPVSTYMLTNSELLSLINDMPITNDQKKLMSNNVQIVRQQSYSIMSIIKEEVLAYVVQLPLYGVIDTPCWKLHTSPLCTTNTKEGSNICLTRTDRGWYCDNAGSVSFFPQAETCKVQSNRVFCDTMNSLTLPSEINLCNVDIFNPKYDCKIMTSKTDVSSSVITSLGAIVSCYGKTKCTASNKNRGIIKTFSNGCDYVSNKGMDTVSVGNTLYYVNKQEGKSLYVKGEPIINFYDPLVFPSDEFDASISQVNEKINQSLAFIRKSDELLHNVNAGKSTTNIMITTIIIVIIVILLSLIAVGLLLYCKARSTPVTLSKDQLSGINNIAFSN
T1 sequence (P03420 26-109): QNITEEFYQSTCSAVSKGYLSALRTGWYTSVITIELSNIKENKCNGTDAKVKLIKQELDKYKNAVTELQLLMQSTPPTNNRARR

For orientation: IC50 means the point on the concentration scale where inhibition reaches its midpoint. On to `NC1CCN(c2ncc(CN3C(=O)C4(CC4)c4ccc(F)cc43)c(NCCN3CCOCC3)n2)C1` (stereo not drawn) [Compound 3, 1′-((2-(3-Aminopyrrolidin-1-yl)-4-((2-morpholinoethyl)amino)pyrimidin-5-yl)methyl)-6′-fluorospiro[cyclopropane-1,3′-indolin]-2′-one], for which the midpoint of inhibition on RSV A2_F (setting [1]), the IC50, lay at 4.18 µM.

The compound `CC(C)CNc1nc(N2CCC(CN)CC2)ncc1CN1C(=O)C2(CC2)c2ccc(F)cc21` [Compound 6] yielded an IC50 against RSV A2_F (setting [1]) of 5.22 µM.

On RSV A2_F (setting [1]), `CC(C)CCNc1nc(N2CCCC2)ncc1CN1C(=O)C2(CC2)c2ccc(F)cc21` [Compound 7, 6′-Fluoro-1′-((4-(isopentylamino)-2-(pyrrolidin-1-yl)pyrimidin-5-yl)methyl)spiro[cyclopropane-1,3′-indolin]-2′-one] came in with an IC50 of 1.99 µM. Against the preceding compound, the IC50 is about 2.6-fold lower.

In turn, `CC(C)CNc1nc(N2CCOCC2)ncc1CN1C(=O)C2(CC2)c2ccc(F)cc21` [Compound 8, 6′-Fluoro-1′-((4-(isobutylamino)-2-morpholinopyrimidin-5-yl)methyl)spiro[cyclopropane-1,3′-indolin]-2′-one] returned a 50% inhibitory concentration (IC50) against RSV A2_F (setting [1]) of 8.53 µM.

Consider `NC1CCN(c2ncc(CN3C(=O)C4(CC4)c4ccc(F)cc43)c(N3CCOCC3)n2)C1` (stereo not drawn) [Compound 9, 1′-((2-(3-Aminopyrrolidin-1-yl)-4-morpholinopyrimidin-5-yl)methyl)-6′-fluorospiro[cyclopropane-1,3′-indolin]-2′-one], for which the half-inhibitory concentration (IC50) against RSV A2_F (setting [1]) amounted to 3.66 µM.

`NC1CCN(c2ncc(CN3C(=O)C4(CC4)c4ccc(F)cc43)c(NC3CCOCC3)n2)C1` (stereo not drawn) [Compound 10, 1′-((2-(3-Aminopyrrolidin-1-yl)-4-((tetrahydro-2H-pyran-4-yl)amino)pyrimidin-5-yl)methyl)-6′-fluorospiro[cyclopropane-1,3′-indolin]-2′-one]: the IC50 against RSV A2_F (setting [1]) came out at 0.184 µM; in the test with RSV A2 VR-1540, 33 nM.

`COCCCNc1nc(N2CCC(N)C2)ncc1CN1C(=O)C2(CC2)c2ccc(F)cc21` (stereo not drawn) [Compound 11, 1′-((2-(3-Aminopyrrolidin-1-yl)-4-((3-methoxypropyl)amino)pyrimidin-5-yl)methyl)-6′-fluorospiro[cyclopropane-1,3′-indolin]-2′-one] registered an IC50 on RSV A2_F (setting [1]) of 0.424 µM.

In turn, `NC1CCN(c2nc(NCCCCO)ncc2CN2C(=O)C3(CC3)c3ccc(F)cc32)C1` (stereo not drawn) [Compound 12, 1′-((4-(3-Aminopyrrolidin-1-yl)-2-((4-hydroxybutyl)amino)pyrimidin-5-yl)methyl)-6′-fluorospiro[cyclopropane-1,3′-indolin]-2′-one] had a 50% inhibitory concentration (IC50) against RSV A2_F (setting [1]) of 4.78 µM.

`NC1CCN(c2ncc(CN3C(=O)C4(CC4)c4ccc(F)cc43)c(N3CCS(=O)(=O)CC3)n2)C1` (stereo not drawn) [Compound 13, 1′-((2-(3-Aminopyrrolidin-1-yl)-4-(1,1-dioxidothiomorpholino)pyrimidin-5-yl)methyl)-6′-fluorospiro[cyclopropane-1,3′-indolin]-2′-one]: the figures for the concentration for half-maximal inhibition (IC50) on RSV A2_F (setting [1]) and in the test with RSV A2 VR-1540 were 5.04 µM and 424 nM, respectively.

With `CS(=O)(=O)N1CCN(c2nc(N3CCC(N)C3)ncc2CN2C(=O)C3(CC3)c3ccc(F)cc32)CC1` (stereo not drawn) [Compound 14, 1′-{[2-(3-Aminopyrrolidin-1-yl)-4-(4-methanesulfonylpiperazin-1-yl)pyrimidin-5-yl]methyl}-6′-fluoro-1′,2′ dihydrospiro[cyclopropane-1,3′-indole]-2′-one], half-maximal inhibition against RSV A2_F (setting [1]) (IC50) required 1.2 µM.

Regarding `NC1CCN(c2ncc(CN3C(=O)C4(CC4)c4ccc(F)cc43)c(SCCCCO)n2)C1` (stereo not drawn) [Compound 16, 1′-{[2-(3-Aminopyrrolidin-1-yl)-4-[(4-hydroxybutyl)sulfanyl]pyrimidin-5-yl]methyl}-6′-fluoro-1′,2′-dihydrospiro[cyclopropane-1,3′-indole]-2′-one], the IC50 against RSV A2_F (setting [1]) is 2.79 µM; at RSV A2_F (setting [2]), 2.75 µM.

`CC(=O)N1CCN(c2nc(N3CCC(N)C3)ncc2CN2C(=O)C3(CC3)c3ccc(F)cc32)CC1` (stereo not drawn) [Compound 17, 1′-{[4-(4-Acetylpiperazin-1-yl)-2-(3-aminopyrrolidin-1-yl)pyrimidin-5-yl]methyl}-6′-fluoro-1′,2′-dihydrospiro[cyclopropane-1,3′-indole]-2′-one] yielded a half-maximal inhibitory concentration (IC50) against RSV A2_F (setting [1]) of 5.46 µM.

With `CS(=O)(=O)CCNc1nc(N2CCC(N)C2)ncc1CN1C(=O)C2(CC2)c2ccc(F)cc21` (stereo not drawn) [Compound 18, 1′-{[2-(3-Aminopyrrolidin-1-yl)-4-[(2-methanesulfonylethyl)amino]pyrimidin-5-yl]methyl}-6′-fluoro-1′,2′-dihydrospiro[cyclopropane-1,3′-indole]-2′-one], at RSV A2_F (setting [1]), it took 0.885 µM to reach half-maximal inhibition (IC50). Against the preceding compound, the IC50 is about 6.2-fold lower.

On RSV A2_F (setting [1]), `NC1CCN(c2ncc(CN3C(=O)C4(CC4)c4ccc(F)cc43)c(NCCCCCO)n2)C1` (stereo not drawn) [Compound 19, 1′-{[2-(3-Aminopyrrolidin-1-yl)-4-[(5-hydroxypentyl)amino]pyrimidin-5-yl]methyl}-6′-fluoro-1′,2′-dihydrospiro[cyclopropane-1,3′-indole]-2′-one] came in with a half-maximal inhibitory concentration (IC50) of 0.362 µM.

Consider `NC1CCN(c2ncc(CN3C(=O)C4(CC4)c4ccc(F)cc43)c(C#CCCCO)n2)C1` (stereo not drawn) [Compound 21, 1′-{[2-(3-Aminopyrrolidin-1-yl)-4-(5-hydroxypent-1-yn-1-yl)pyrimidin-5-yl]methyl}-6′-fluoro-1′,2′-dihydrospiro[cyclopropane-1,3′-indole]-2′-one], for which 25.1 µM corresponded to half-maximal inhibition at RSV A2_F (setting [2]) (IC50).

Compound `NC1CCN(c2ncc(CN3C(=O)C4(CC4)c4ccc(F)cc43)c(OCCCF)n2)C1` (stereo not drawn) [Compound 22, 1′-{[2-(3-Aminopyrrolidin-1-yl)-4-(3-fluoropropoxy)pyrimidin-5-yl]methyl}-6′-fluoro-1′,2′-dihydrospiro[cyclopropane-1,3′-indole]-2′-one] gave an IC50 against RSV A2_F (setting [1]) of 0.951 µM.

At RSV A2_F (setting [1]), `NC1CCN(c2ncc(CN3C(=O)C4(CC4)c4ccc(F)cc43)c(NCC3CCOCC3)n2)C1` (stereo not drawn) [Compound 23, 1′-{[2-(3-Aminopyrrolidin-1-yl)-4-{[(oxan-4-yl)methyl]amino}pyrimidin-5-yl]methyl}-6′-fluoro-1′,2′-dihydrospiro[cyclopropane-1,3′-indole]-2′-one] displayed an IC50 of 0.451 µM.

Compound `NC1CCN(c2ncc(CN3C(=O)C4(CC4)c4ccc(F)cc43)c(NCCCCO)n2)CC1` [Compound 24, 1′-{[2-(4-Aminopiperidin-1-yl)-4-[(4-hydroxybutyl)amino]pyrimidin-5-yl]methyl}-6′-fluoro-1′,2′-dihydrospiro[cyclopropane-1,3′-indole]-2′-one] came in with an IC50 against RSV A2_F (setting [1]) of 0.695 µM.
